Here are results for 7 molecules from US6610853B1, “N-(phenylsulfonyl)picolinamide derivatives, process for producing the same, and herbicide” (Kureha Kagaku Kogyo K.K., priority 2000, dated 2003).

Holding throughout (experiment): Test on herbicidal activity by foliar application
Holding throughout (format): in vivo
Holding throughout (details): foliar spray, 1 kg/ha, plants at 1-2 leaf stage in pots, evaluated 14 days after spraying

In one assay the test system is Veronica hederaefolia. The procedure: (§1) Test on Herbicidal Activity by Foliar Application: Herbicidal solutions of each test compounds, which were prepared by dissolving at predetermined concentrations such a wettable powder of the test compound as that described in the above Formulation Example, were sprayed at dosages of 1 kg/ha over foliar parts of Amaranthus retroflexus, Bidens pilosa, Sinapis arvensis, Stellaria media, Solanum nigrum, Abutilon theophrasti, Convolvulus arvensis, Matricaria chamomilla, Galium aparine, Veronica hederaefolia, and Setaria viridis (each test plant is 1-2 leaf stage) which were grown in pots. 14 days latter after spraying, its herbicidal activity was evaluated in accordance with the below-described system. Herbicidal Activity 1: less than 30% inhibition 2: 30% or more-50% inhibition 3: 50% or more-70% inhibition 4: 70% or more-90% inhibition 5: 90% or more inhibition

The next assay deals with Matricaria chamomilla. The procedure: as §1
Another assay has as its system Amaranthus retroflexus. As for the experimental part:
as §1

The next assay concerns Bidens pilosa. The procedure:
as §1

The subject of another assay is Sinapis arvensis. As for the experimental part: as §1
A further assay has as its system Convolvulus arvensis. The procedure: as §1
In another assay the test system is Setaria viridis. The procedure: as §1
Another assay has as its system Solanum nigrum. The procedure: as §1
Another assay concerns Stellaria media. As for the experimental part: as §1
The test system of another assay is Galium aparine. As for the experimental part: as §1
The test system of the next assay is Abutilon theophrasti. As for the experimental part:
as §1

With `COc1ccc(C(=O)NS(=O)(=O)c2ccccc2OC(F)(F)F)nc1OC` [Compound I-799, N-[(2-Trifluoromethoxyphenyl)sulfonyl]-5,6-dimethoxy-2-pyridinecarboxamide], the “Herbicidal activity, Veronica hederaefolia” value with Veronica hederaefolia is recorded as 4 (70% or more-90% inhibition). Besides, in the assay with Matricaria chamomilla, the “Herbicidal activity, Matricaria chamomilla” value is reported as 5 (90% or more inhibition). In addition, the “Herbicidal activity, Amaranthus retroflexus” value with Amaranthus retroflexus was 3 (50% or more-70% inhibition). Further, in the assay on Bidens pilosa, the “Herbicidal activity, Bidens pilosa” value is given as 4 (70% or more-90% inhibition). In addition, the “Herbicidal activity, Sinapis arvensis” value in the assay with Sinapis arvensis is recorded as 5 (90% or more inhibition). Also, the “Herbicidal activity, Convolvulus arvensis” value in the assay with Convolvulus arvensis is 3 (50% or more-70% inhibition). Also, in the assay on Setaria viridis, the “Herbicidal activity, Setaria viridis” value is listed as 3 (50% or more-70% inhibition). Besides, in the assay with Solanum nigrum, the “Herbicidal activity, Solanum nigrum” value is recorded as 4 (70% or more-90% inhibition). In addition, the “Herbicidal activity, Stellaria media” value in the assay with Stellaria media is reported as 5 (90% or more inhibition). Besides, the “Herbicidal activity, Galium aparine” value in the assay with Galium aparine is given as 4 (70% or more-90% inhibition). Besides, the “Herbicidal activity, Abutilon theophrasti” value in the assay on Abutilon theophrasti is reported as 5 (90% or more inhibition).

Consider `COc1ccc(C(=O)NS(=O)(=O)c2ccccc2OC(F)(F)F)nc1Cl` [Compound I-798, N-[(2-Trifluoromethoxyphenyl)sulfonyl]-6-chloro-5-methoxy-2-pyridinecarboxamide], for which the “Herbicidal activity, Veronica hederaefolia” value in the assay on Veronica hederaefolia is recorded as 5 (90% or more inhibition). Moreover, the “Herbicidal activity, Matricaria chamomilla” value in the assay with Matricaria chamomilla is 5 (90% or more inhibition). The “Herbicidal activity, Amaranthus retroflexus” value in the assay on Amaranthus retroflexus is 5 (90% or more inhibition). In addition, the “Herbicidal activity, Bidens pilosa” value with Bidens pilosa is given as 5 (90% or more inhibition). Besides, the “Herbicidal activity, Sinapis arvensis” value in the assay with Sinapis arvensis is on record as 5 (90% or more inhibition). Also, the “Herbicidal activity, Convolvulus arvensis” value with Convolvulus arvensis is recorded as 4 (70% or more-90% inhibition). The “Herbicidal activity, Setaria viridis” value with Setaria viridis is 3 (50% or more-70% inhibition). The “Herbicidal activity, Solanum nigrum” value in the assay on Solanum nigrum is 5 (90% or more inhibition). Also, the “Herbicidal activity, Stellaria media” value in the assay on Stellaria media is 5 (90% or more inhibition). The “Herbicidal activity, Galium aparine” value in the assay on Galium aparine is 5 (90% or more inhibition). The “Herbicidal activity, Abutilon theophrasti” value in the assay with Abutilon theophrasti was 5 (90% or more inhibition).

Consider `COc1ccc(C(=O)NS(=O)(=O)c2ccccc2S(C)(=O)=O)nc1Br` [Compound I-819, 6-Bromo-5-methoxy-N-[[2-(methylsulfonyl)-phenyl]sulfonyl]-2-pyridinecarboxamide], for which, in the assay on Veronica hederaefolia, the “Herbicidal activity, Veronica hederaefolia” value is reported as 3 (50% or more-70% inhibition). In the assay with Matricaria chamomilla, the “Herbicidal activity, Matricaria chamomilla” value is on record as 5 (90% or more inhibition). In the assay with Amaranthus retroflexus, the “Herbicidal activity, Amaranthus retroflexus” value is listed as 5 (90% or more inhibition). The “Herbicidal activity, Bidens pilosa” value with Bidens pilosa is 5 (90% or more inhibition). Further, the “Herbicidal activity, Sinapis arvensis” value with Sinapis arvensis is given as 5 (90% or more inhibition). Besides, the “Herbicidal activity, Convolvulus arvensis” value with Convolvulus arvensis was 4 (70% or more-90% inhibition). For the same molecule, the “Herbicidal activity, Setaria viridis” value in the assay with Setaria viridis is recorded as 5 (90% or more inhibition). Further, the “Herbicidal activity, Solanum nigrum” value with Solanum nigrum is reported as 5 (90% or more inhibition). In addition, the “Herbicidal activity, Stellaria media” value in the assay with Stellaria media is listed as 5 (90% or more inhibition). Also, the “Herbicidal activity, Galium aparine” value in the assay on Galium aparine is 4 (70% or more-90% inhibition). In addition, the “Herbicidal activity, Abutilon theophrasti” value with Abutilon theophrasti is on record as 5 (90% or more inhibition).

In the case of `COc1cc(Cl)nc(C(=O)NS(=O)(=O)c2c(F)cccc2F)c1` [Compound I-975, N-[(2,6-Difluorophenyl)sulfonyl]-6-chloro-4-methoxy-2-pyridinecarboxamide], the “Herbicidal activity, Veronica hederaefolia” value in the assay with Veronica hederaefolia is recorded as 3 (50% or more-70% inhibition). In addition, in the assay on Matricaria chamomilla, the “Herbicidal activity, Matricaria chamomilla” value is listed as 4 (70% or more-90% inhibition). In addition, the “Herbicidal activity, Amaranthus retroflexus” value with Amaranthus retroflexus is 3 (50% or more-70% inhibition). For the same molecule, the “Herbicidal activity, Bidens pilosa” value in the assay on Bidens pilosa is reported as 5 (90% or more inhibition). For the same molecule, in the assay with Sinapis arvensis, the “Herbicidal activity, Sinapis arvensis” value was 5 (90% or more inhibition). Also, in the assay with Convolvulus arvensis, the “Herbicidal activity, Convolvulus arvensis” value was 4 (70% or more-90% inhibition). For the same molecule, the “Herbicidal activity, Setaria viridis” value with Setaria viridis was 3 (50% or more-70% inhibition). The “Herbicidal activity, Solanum nigrum” value in the assay on Solanum nigrum is 5 (90% or more inhibition). In addition, the “Herbicidal activity, Stellaria media” value with Stellaria media is 4 (70% or more-90% inhibition). For the same molecule, the “Herbicidal activity, Galium aparine” value in the assay on Galium aparine is recorded as 5 (90% or more inhibition). In addition, the “Herbicidal activity, Abutilon theophrasti” value in the assay on Abutilon theophrasti is on record as 5 (90% or more inhibition).

Turning to `COC(=O)c1ccccc1S(=O)(=O)NC(=O)c1ccc(OC)c(Cl)n1` [Compound I-258, 2-[[[(6-Chloro-5-methoxypyridin-2-yl)carbonyl]-amino]sulfonyl]benzoic Acid Methyl Ester], the “Herbicidal activity, Veronica hederaefolia” value in the assay on Veronica hederaefolia is 4 (70% or more-90% inhibition). The “Herbicidal activity, Matricaria chamomilla” value in the assay with Matricaria chamomilla is 5 (90% or more inhibition). For the same molecule, in the assay on Amaranthus retroflexus, the “Herbicidal activity, Amaranthus retroflexus” value is listed as 5 (90% or more inhibition). The “Herbicidal activity, Bidens pilosa” value with Bidens pilosa is reported as 5 (90% or more inhibition). Moreover, in the assay with Sinapis arvensis, the “Herbicidal activity, Sinapis arvensis” value was 5 (90% or more inhibition). Moreover, the “Herbicidal activity, Convolvulus arvensis” value with Convolvulus arvensis is reported as 5 (90% or more inhibition). In addition, the “Herbicidal activity, Setaria viridis” value with Setaria viridis is given as 5 (90% or more inhibition). The “Herbicidal activity, Solanum nigrum” value in the assay with Solanum nigrum is on record as 5 (90% or more inhibition). Besides, the “Herbicidal activity, Stellaria media” value in the assay on Stellaria media is given as 5 (90% or more inhibition). Also, the “Herbicidal activity, Galium aparine” value with Galium aparine is given as 5 (90% or more inhibition). Also, in the assay with Abutilon theophrasti, the “Herbicidal activity, Abutilon theophrasti” value was 5 (90% or more inhibition).

In the case of `COc1ccc(C(=O)NS(=O)(=O)c2ccccc2OC(F)(F)F)nc1` [Compound I-774, N-[(2-Trifluoromethoxyphenyl)sulfonyl]-5-methoxy-2-pyridinecarboxamide], the “Herbicidal activity, Veronica hederaefolia” value with Veronica hederaefolia is reported as 5 (90% or more inhibition). Besides, in the assay on Matricaria chamomilla, the “Herbicidal activity, Matricaria chamomilla” value is given as 5 (90% or more inhibition). Moreover, the “Herbicidal activity, Amaranthus retroflexus” value in the assay on Amaranthus retroflexus was 4 (70% or more-90% inhibition). Besides, the “Herbicidal activity, Bidens pilosa” value in the assay on Bidens pilosa was 5 (90% or more inhibition). Besides, the “Herbicidal activity, Sinapis arvensis” value in the assay on Sinapis arvensis is given as 5 (90% or more inhibition). The “Herbicidal activity, Convolvulus arvensis” value in the assay on Convolvulus arvensis was 4 (70% or more-90% inhibition). In the assay with Setaria viridis, the “Herbicidal activity, Setaria viridis” value is reported as 5 (90% or more inhibition). The “Herbicidal activity, Solanum nigrum” value in the assay with Solanum nigrum is on record as 5 (90% or more inhibition). For the same molecule, the “Herbicidal activity, Stellaria media” value with Stellaria media was 5 (90% or more inhibition). Further, the “Herbicidal activity, Galium aparine” value in the assay with Galium aparine was 4 (70% or more-90% inhibition). In the assay on Abutilon theophrasti, the “Herbicidal activity, Abutilon theophrasti” value is recorded as 5 (90% or more inhibition).

On to `COc1ccc(C(=O)NS(=O)(=O)c2ccccc2S(=O)(=O)N(C)C)nc1Cl` [Compound I-888, N-[[2-(N,N-Dimethylaminosulfonyl)phenyl]-sulfonyl]-6-chloro-5-methoxy-2-pyridinecarboxamide], for which the “Herbicidal activity, Veronica hederaefolia” value in the assay with Veronica hederaefolia is reported as 4 (70% or more-90% inhibition). In the assay on Matricaria chamomilla, the “Herbicidal activity, Matricaria chamomilla” value was 5 (90% or more inhibition). In the assay with Amaranthus retroflexus, the “Herbicidal activity, Amaranthus retroflexus” value is given as 5 (90% or more inhibition). The “Herbicidal activity, Bidens pilosa” value with Bidens pilosa is reported as 5 (90% or more inhibition). In the assay on Sinapis arvensis, the “Herbicidal activity, Sinapis arvensis” value is 5 (90% or more inhibition). In addition, in the assay with Convolvulus arvensis, the “Herbicidal activity, Convolvulus arvensis” value was 5 (90% or more inhibition). For the same molecule, the “Herbicidal activity, Setaria viridis” value with Setaria viridis is recorded as 5 (90% or more inhibition). Further, the “Herbicidal activity, Solanum nigrum” value with Solanum nigrum was 5 (90% or more inhibition). In addition, in the assay on Stellaria media, the “Herbicidal activity, Stellaria media” value was 5 (90% or more inhibition). Further, the “Herbicidal activity, Galium aparine” value with Galium aparine is on record as 5 (90% or more inhibition). In addition, the “Herbicidal activity, Abutilon theophrasti” value with Abutilon theophrasti is 5 (90% or more inhibition).
